± gives the expanded uncertainty stated by the source.
Tests used:
[1] = 298 K; 101.33 kPa; Liquid; Vibrating tube method
[2] = refractive index (Na D-line) (dimensionless); conditions: 298 K; 101.33 kPa; Liquid; Standard Abbe refractometry

Row | mass density [1] [kg/m3] | refractive index [2] | Structure (SMILES)
1 | 1006.48 ± 0.38 | 1.52467 ± 0.00042 | CC(O)c1ccccc1 (stereo not drawn) [1-phenylethanol]
2 | 1039.32 ± 0.4 | 1.56019 ± 0.00042 | c1ccc(COCc2ccccc2)cc1 [dibenzyl ether]
3 | 935.04 ± 0.37 | 1.40718 ± 0.00042 | CCCCC(=O)O [pentanoic acid]

Row | Structure (SMILES) | mass density [1] [kg/m3] | refractive index [2]
4 | Clc1ccccc1 [chlorobenzene] | 1101.08 ± 0.44 | 1.52165 ± 0.00042
